Assay results: patent US11873298B2, “Compounds and uses thereof” (JANSSEN PHARMACEUTICA NV, priority 2017, dated 2024)

How the values were obtained:
SCD5 = biological target: T1, SCD5 (Homo sapiens, UniProt Q86SK9); assay: Growth inhibition of humanized yeast strain expressing SCD5 as sole desaturase; assay type: cell-based
T1 construct: host or cells: S. cerevisiae ole1Δ strain (W303 pdr1Δ pdr3Δ background), plasmid pRS316 with TDH3 promoter and CYC1 terminator
T1 sequence (Q86SK9 1-330): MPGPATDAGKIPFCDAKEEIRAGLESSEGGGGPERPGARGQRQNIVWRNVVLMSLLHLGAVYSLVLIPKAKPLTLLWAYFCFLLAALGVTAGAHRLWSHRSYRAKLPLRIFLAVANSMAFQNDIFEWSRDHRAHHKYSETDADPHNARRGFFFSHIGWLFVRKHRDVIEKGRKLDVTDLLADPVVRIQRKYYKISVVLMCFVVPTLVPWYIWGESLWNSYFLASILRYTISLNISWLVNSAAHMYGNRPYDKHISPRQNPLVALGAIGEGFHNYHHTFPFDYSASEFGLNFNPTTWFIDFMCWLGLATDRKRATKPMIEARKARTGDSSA
Method in brief: (§1)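 Measured by optical density at 600 nm, growth of desaturase-dependent yeast (OLE1 deleted; human SCD1, human SCD5 or yeast Ole1 supplied from plasmid) was scored after 24 h (Ole1) or 40 h (SCD1, SCD5) at 30° C. in galactose media lacking uracil with DMSO-delivered compound.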

SCD1 = biological target: T2, SCD1 (Homo sapiens, UniProt O00767); assay: Growth inhibition of humanized yeast strain expressing SCD1 as sole desaturase; assay type: cell-based
T2 construct: host or cells: S. cerevisiae ole1Δ strain (W303 pdr1Δ pdr3Δ background), plasmid pRS316 with TDH3 promoter and CYC1 terminator
T2 sequence (O00767 1-359): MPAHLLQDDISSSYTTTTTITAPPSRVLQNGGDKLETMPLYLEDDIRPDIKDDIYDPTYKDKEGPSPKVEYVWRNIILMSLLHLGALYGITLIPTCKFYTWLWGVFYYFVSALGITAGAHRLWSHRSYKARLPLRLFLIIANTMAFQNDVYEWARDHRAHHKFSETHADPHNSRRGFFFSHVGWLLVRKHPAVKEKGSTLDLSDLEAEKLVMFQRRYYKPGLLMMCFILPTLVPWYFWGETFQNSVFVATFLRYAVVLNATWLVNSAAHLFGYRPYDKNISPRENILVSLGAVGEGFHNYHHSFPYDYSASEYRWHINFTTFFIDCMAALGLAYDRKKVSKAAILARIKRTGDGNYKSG
Method in brief: as §1

[1] = growth inhibition of humanized yeast strain expressing human SCD5
[2] = growth inhibition of humanized yeast strain expressing human SCD1
[3] = humanized yeast strain expressing SCD5
[4] = humanized yeast strain expressing SCD1

`CC(C)(C)OC(=O)N1CCC(c2nc(-c3ccc4cn(C5CCOC5)nc4c3)no2)CC1` (centres unmarked) [Compound 655] gave an IC50 (SCD5; [1]) of over 45 µM and an IC50 (SCD1; [2]) of over 45 µM.

`CC(C)(C)OC(=O)N1CCC(c2noc(-c3ccc4cnn(C5COC5)c4c3F)n2)CC1` [Compound 988] gave an IC50 (SCD5; humanized yeast strain, 40 h) of 0.024 µM and an IC50 (SCD1; humanized yeast strain, 40 h) of over 45 µM.

`CC1(OC(=O)N2CCC(c3nc(-c4ccc5cnn(C6(C)COC6)c5c4)no3)CC2)CC1` [Compound 816] showed an IC50 (SCD5; humanized yeast strain, 40 h) of 7.19 µM and an IC50 (SCD1; humanized yeast strain, 40 h) of over 45 µM.

Work on `COC(=O)N1CCC(c2nc(-c3ccc4cnn(C5CS(=O)(=O)C5)c4c3)no2)CC1` [Compound 1014] yielded an IC50 (SCD5; humanized yeast strain, 40 h) of 4.82 µM and an IC50 (SCD1; humanized yeast strain, 40 h) of over 45 µM.

`O=C(C1CC1)N1CCN(c2nnc(-c3ccc4cnn(C5COC5)c4c3)o2)CC1` [Compound 987] gave an IC50 (SCD5; humanized yeast strain, 40 h) of over 45 µM and an IC50 (SCD1; humanized yeast strain, 40 h) of over 45 µM.

`CC(C)(C)OC(=O)N1CCC(c2nc(-c3ccc4oc(=O)n(C5COC5)c4c3)no2)CC1` [Compound 649] showed an IC50 (SCD5; [1]) of 0.259 µM and an IC50 (SCD1; [2]) of over 45 µM.

Molecule `CC(C)n1ncc2ccc(-c3nc(C4CCN(C(=O)c5ncccn5)CC4)no3)cc21` [Compound 716] has an IC50 (SCD5; [1]) of over 45 µM and an IC50 (SCD1; [2]) of over 45 µM.

For `CC(C)(C)OC(=O)N1CCC(c2noc(-c3ccnc(CC4CC4)c3)n2)CC1` [Compound 1082], the IC50 (SCD5; humanized yeast strain, 40 h) was 0.359 µM and the IC50 (SCD1; humanized yeast strain, 40 h) was over 45 µM.

`COC(=O)N1CCN(c2noc(-c3cccc(OC4COC4)c3)n2)CC1` [Compound 1013] showed an IC50 (SCD5; humanized yeast strain, 40 h) of 0.367 µM and an IC50 (SCD1; humanized yeast strain, 40 h) of over 45 µM.

For `CC(C)(C)OC(=O)N1CCC(c2nc(-c3ccc4cnn([C@H]5C[C@@H](O)C5)c4c3)no2)CC1` [Compound 823], the IC50 (SCD5; humanized yeast strain, 40 h) was 0.119 µM and the IC50 (SCD1; humanized yeast strain, 40 h) was over 45 µM.

With `CC(C)n1ncc2ccc(-c3noc(C4CCN(S(=O)(=O)C5CCCCC5)CC4)n3)cc21` [Compound 673] the IC50 (SCD5; [1]) was 33.8 µM and the IC50 (SCD1; [2]) was over 45 µM.

`CC(C)(C)OC(=O)N1CCC(c2nc(-c3cccc(C4CCCOC4)c3)no2)CC1` (centres unmarked) [Compound 824] showed an IC50 (SCD5; humanized yeast strain, 40 h) of 0.932 µM and an IC50 (SCD1; humanized yeast strain, 40 h) of over 45 µM.

With `COC(=O)N1CCC(c2noc(-c3ccc4ccn(C(C)C)c4c3)n2)CC1` [Compound 1037] the IC50 (SCD5; humanized yeast strain, 40 h) was 0.457 µM and the IC50 (SCD1; humanized yeast strain, 40 h) was 10.2 µM.

`CC(C)n1ncc2ccc(-c3nc(C4CCN(C(=O)OC(C)(C)C)C4)no3)cc21` (centres unmarked) [Compound 524] was tested, and the IC50 (SCD5; [3]) was 2.5 µM and the IC50 (SCD1; [4]) was over 45 µM.

`O=C(C1CCC1)N1CCCN(c2noc(-c3ccc4cnn(C5COC5)c4c3)n2)CC1` [Compound 961] gave an IC50 (SCD5; humanized yeast strain, 40 h) of over 45 µM and an IC50 (SCD1; humanized yeast strain, 40 h) of over 45 µM.

In the case of `CC(C)(C)OC(=O)N1CCC(c2nc(-c3ccc4cnn(C5COC5)c4c3)ns2)CC1` [Compound 621], the IC50 (SCD5; [1]) is reported as 0.042 µM and the IC50 (SCD1; [2]) is reported as over 45 µM.

In the case of `CC(C)n1nc(CCN)c2ccc(-c3noc(C4CCN(C(=O)OC(C)(C)C)CC4)n3)cc21` [Compound 761], the IC50 (SCD5; humanized yeast strain, 40 h) is reported as over 45 µM and the IC50 (SCD1; humanized yeast strain, 40 h) is reported as over 45 µM.

With `O=C(C1CCC1)N1CCC(c2noc(-c3ccnc(C4CCOC4)c3)n2)CC1` (centres unmarked) [Compound 1180] the IC50 (SCD5; humanized yeast strain, 40 h) was 0.06 µM and the IC50 (SCD1; humanized yeast strain, 40 h) was over 45 µM.

`CC(C)n1ncc2ccc(-c3noc(C4CCN(C(=O)C(C)(C)C#N)CC4)n3)cc21` [Compound 717] gave an IC50 (SCD5; [1]) of 1.7 µM and an IC50 (SCD1; [2]) of over 45 µM.

For `CC(C)c1nccn2cc(-c3nc(C4CCN(C(=O)OC(C)(C)C)CC4)no3)cc12` [Compound 901], the IC50 (SCD5; humanized yeast strain, 40 h) was over 45 µM and the IC50 (SCD1; humanized yeast strain, 40 h) was over 45 µM.

Molecule `CC(C)(C)OC(=O)N1CCC(c2noc(-c3ccc4cnn(C5COC5)c4c3)n2)CC1` [Compound 750] has an IC50 (SCD5; humanized yeast strain, 40 h) of 0.01 µM and an IC50 (SCD1; humanized yeast strain, 40 h) of 3.25 µM.

In the case of `O=C(OC1CC1)N1CCC(c2noc(-c3cnc4cnn(C5COC5)c4c3)n2)CC1` [Compound 1139], the IC50 (SCD5; humanized yeast strain, 40 h) is reported as 0.096 µM and the IC50 (SCD1; humanized yeast strain, 40 h) is reported as over 45 µM.

`O=C(CC1CC1)N1CCC(c2noc(-c3ccc4cnn(C5COC5)c4c3)n2)CC1` [Compound 894] showed an IC50 (SCD5; humanized yeast strain, 40 h) of 0.07 µM and an IC50 (SCD1; humanized yeast strain, 40 h) of over 45 µM.

`O=C(N1CCC(c2noc(-c3ccnc(C4CCOC4)c3)n2)CC1)C1(C(F)(F)F)CC1` (centres unmarked) [Compound 1177] gave an IC50 (SCD5; humanized yeast strain, 40 h) of 0.84 µM and an IC50 (SCD1; humanized yeast strain, 40 h) of over 45 µM.

`O=C(C1CCC1)N1CCC(c2noc(-c3ccnc(N4CCOCC4)c3)n2)CC1` [Compound 1105] gave an IC50 (SCD5; humanized yeast strain, 40 h) of 0.549 µM and an IC50 (SCD1; humanized yeast strain, 40 h) of over 45 µM.

For `CC(C)(C)OC(=O)N1CCC(c2nc(-c3ccc4cn(C5CC(=O)C5)nc4c3)no2)CC1` [Compound 786], the IC50 (SCD5; humanized yeast strain, 40 h) was over 45 µM and the IC50 (SCD1; humanized yeast strain, 40 h) was over 45 µM.

`CC(C)n1ncc2ccc(-c3noc(C4CCN(C(=O)CNC(=O)OC(C)(C)C)CC4(F)F)n3)cc21` (centres unmarked) [Compound 525] showed an IC50 (SCD5; [3]) of over 45 µM and an IC50 (SCD1; [4]) of over 45 µM.

Molecule `COCC(C)(C)n1ncc2ccc(-c3noc(C4CCN(C(=O)CC(C)(C)C)CC4)n3)cc21` [Compound 802] has an IC50 (SCD5; humanized yeast strain, 40 h) of 14.2 µM and an IC50 (SCD1; humanized yeast strain, 40 h) of over 45 µM.
